The test addresses Tyrosine-protein kinase Lck (Homo sapiens, UniProt P06239). Kind of test: ChEBML_210745. The text has this:
Inhibitory concentration against phosphorylation of angiotensin I catalyzed by protein-tyrosine kinase p56lck

Molecules are shown by their SMILES.

By IC50 is commonly meant the concentration that inhibits the measured activity by half. Higher therefore signals lower potency.

Chain of Tyrosine-protein kinase Lck (P06239 whole entry): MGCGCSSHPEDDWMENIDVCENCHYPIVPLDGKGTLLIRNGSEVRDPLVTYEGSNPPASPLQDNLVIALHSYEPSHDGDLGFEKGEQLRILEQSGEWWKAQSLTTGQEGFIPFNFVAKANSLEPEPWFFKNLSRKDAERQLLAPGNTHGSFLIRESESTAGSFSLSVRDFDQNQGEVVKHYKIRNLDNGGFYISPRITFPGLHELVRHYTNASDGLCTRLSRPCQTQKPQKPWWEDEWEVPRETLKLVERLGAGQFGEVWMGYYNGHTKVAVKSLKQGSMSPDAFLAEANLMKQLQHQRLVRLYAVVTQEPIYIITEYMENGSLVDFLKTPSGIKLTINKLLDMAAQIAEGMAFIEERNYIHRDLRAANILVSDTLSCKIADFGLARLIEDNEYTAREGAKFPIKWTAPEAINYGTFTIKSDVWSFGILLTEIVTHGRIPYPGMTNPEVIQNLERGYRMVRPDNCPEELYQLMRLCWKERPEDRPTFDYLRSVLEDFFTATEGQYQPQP

Compound `O=[N+]([O-])c1ccc(C/N=N/c2ccccc2)cc1` returned an IC50 greater than 3320 µM. Under `COc1ccc(N=NCc2cc(O)ccc2O)cc1` [2-[(4-Methoxy-phenyl)-hydrazonomethyl]-benzene-1,4-diol] stands 310 µM. In the case of `O=[N+]([O-])c1ccc(/N=N\Cc2cccc(O)c2O)c([N+](=O)[O-])c1` [3-[(2,4-Dinitro-phenyl)-hydrazonomethyl]-benzene-1,2-diol], the IC50 was greater than 2510 µM.

`COc1ccc(N=NCc2cccc(O)c2O)cc1` [3-[(4-Methoxy-phenyl)-hydrazonomethyl]-benzene-1,2-diol] gave a half-inhibitory concentration (IC50) of 310 µM.

For the compound `Oc1ccc(Br)cc1CN=Nc1ccccc1` [4-Bromo-2-(phenyl-hydrazonomethyl)-phenol], the IC50 is greater than 2600 µM. Under `COc1ccc(CN=Nc2ccc(Br)cc2)cc1O` [5-[(4-Bromo-phenyl)-hydrazonomethyl]-2-methoxy-phenol] stands greater than 2490 µM; under `Brc1ccc(N=NCc2ccccn2)cc1` [N-(4-Bromo-phenyl)-N'-[1-pyridin-2-yl-meth-(E)-ylidene]-hydrazine], greater than 2900 µM. For the compound `Brc1ccc(N=NCc2cccnc2)cc1` [N-(4-Bromo-phenyl)-N'-[1-pyridin-3-yl-meth-(E)-ylidene]-hydrazine], the concentration for half-maximal inhibition (IC50) was greater than 2900 µM. Under `Brc1ccc(N=NCc2ccncc2)cc1` [N-(4-Bromo-phenyl)-N'-[1-pyridin-4-yl-meth-(E)-ylidene]-hydrazine] stands greater than 2900 µM. `c1ccc(N=NCc2ccccn2)cc1` [N-Phenyl-N'-[1-pyridin-2-yl-meth-(E)-ylidene]-hydrazine] registered an IC50 greater than 4060 µM. The compound `c1ccc(N=NCc2ccncc2)cc1` [N-Phenyl-N'-[1-pyridin-4-yl-meth-(E)-ylidene]-hydrazine] displayed an IC50 greater than 4060 µM. `O=[N+]([O-])c1cccc(C/N=N/c2ccccc2)c1` [N-[1-(3-Nitro-phenyl)-meth-(E)-ylidene]-N'-phenyl-hydrazine] came in with a concentration for half-maximal inhibition (IC50) greater than 3320 µM.

The values are drawn from BindingDB's records for doi:10.1016/S0960-894X(00)80255-3 (1991).
